Data from publication PMC3982560, “Synthesis of fluorescent analogs of relaxin family peptides and their preliminary in vitro and in vivo characterization” (Frontiers in Chemistry, 2013).

Legend:
[1] = test system: central RXFP1 activation (water drinking); test: Drinking (dipsogenic) response after icv infusion; assay type: in vivo; details: adult male C57B/6J mice; single 4 μg dose icv in 4 μl aCSF; n = 3–4; observed 30 min
Description: (§1) Adult male C57B/6J mice (10-weeks old) were deeply anesthetized by inhalation of 4% isoflurane and anaesthesia was maintained with 2% isoflurane administered at 0.2 l/min through a nasal cone. Mice were secured in a stereotaxic frame and an incision made to expose the skull, which was cleaned with 6% hydrogen peroxide. Two 1 mm-diameter holes were drilled in the skull on either side of the sagittal midline, 3 mm posterior and 3 mm lateral to bregma, to allow small screws (3 mm long) to be secured in order to anchor the guide cannula in place. A third hole of 1 mm in diameter was drilled through the skull to allow implantation of a stainless-steel guide cannula (11 mm long, 24 gauge) just above the lateral ventricle at the coordinates relative to bregma: anterior-posterior −0.46 mm; medial-lateral −0.8 mm; dorsal-ventral −1.8 mm. The guide cannula and screws were fixed in place by application of self-curing acrylic dental cement (Vertex-Dental, the Netherlands).
After 5–10 days recovery post-surgery, mice were gently restrained and an injector was inserted through the guide cannula which protruded 0.5 mm into the lateral ventricle. A single 4 μg dose of each peptide (n = 3–4) was delivered in 4 μ l of artificial CSF (aCSF; 147 mM NaCl, 4 mM KCl, 0.85 mM MgCl2, and 2.3 mM CaCl2), over 1 min via a 10 μ l syringe (0.46 mm diameter) mounted on an infusion pump connected to the injector via polyethylene tubing. Following infusion, the injector was left in place for a further 15 s to prevent backflow of the infused peptide up the guide cannula.
Following peptide infusion, mice were placed back in their clear-walled home cages for 30 min with access to water (and food) and filmed through the side of the cage for subsequent assessment of behavior. After 30 min, mice were killed by isoflurane inhalation overdose, decapitated, and brains were removed and “post-fixed” by immersion in chilled 4% PFA solution. […] Sections were viewed and images collected using a confocal laser scanning microscope, using laser light at λ of 633 nm, while light between λ of 650–750 nm was detected.

RXFP2 = molecular target: T1, RXFP2 (Homo sapiens, UniProt Q8WXD0); test: cAMP reporter gene assay (pCRE β-galactosidase); details: cell-based assay, HEK-293T RXFP2
T1 construct: expressed in transfected cells; host or cells: HEK-293T (co-transfected with pCRE β-galactosidase reporter)
Experimental: The ability of the Cy5.5-labeled insulin/relaxin family peptide analogs to stimulate cAMP production was evaluated using a cAMP reporter gene assay as described (Scott et al., [2006]). HEK-293T cells co-transfected with either RXFP1 or RXFP2 and a pCRE β-galactosidase reporter plasmid were plated in 96-well plates (Chen et al., [1995]). After 24 h, the co-transfected cells were incubated with increasing concentrations of relaxin analogs in parallel to 10 nM of H2 relaxin or INSL3 for RXFP1- or RXFP2- transfected cells, respectively. The amount of cAMP-driven β-galactosidase expression in each well was assessed with a colormetric assay measuring absorbance at 570 nm on a microplate spectrophotometer. Ligand-induced cAMP stimulation was expressed as a percentage of maximal response of H2 relaxin or INSL3 for RXFP1 and RXFP2 cells, respectively. Each data point was measured in triplicate and each experiment conducted independently at least three separate times. Statistical differences in pEC50 values were analyzed using One-Way ANOVA coupled to the Newman Keul's multiple comparison test for multiple group comparisons in GraphPad Prism 4.

brain tissue = test: Brain distribution of Cy5.5 fluorescence after icv infusion; assay type: in vivo; details: mice, 30 min after icv injection of 4 μg
Description: as §1, with “Netherlands). […]” for “Netherlands).”
Following peptide infusion, mice were placed back in their clear-walled home cages for 30 min with access to water (and food) and filmed through the side of the cage for subsequent assessment of behavior. […] Sections were viewed and images collected using a confocal laser scanning microscope, using laser light at λ of 633 nm, while light between λ of 650–750 nm was detected.

T1 sequence (Q8WXD0 whole entry, species assumed): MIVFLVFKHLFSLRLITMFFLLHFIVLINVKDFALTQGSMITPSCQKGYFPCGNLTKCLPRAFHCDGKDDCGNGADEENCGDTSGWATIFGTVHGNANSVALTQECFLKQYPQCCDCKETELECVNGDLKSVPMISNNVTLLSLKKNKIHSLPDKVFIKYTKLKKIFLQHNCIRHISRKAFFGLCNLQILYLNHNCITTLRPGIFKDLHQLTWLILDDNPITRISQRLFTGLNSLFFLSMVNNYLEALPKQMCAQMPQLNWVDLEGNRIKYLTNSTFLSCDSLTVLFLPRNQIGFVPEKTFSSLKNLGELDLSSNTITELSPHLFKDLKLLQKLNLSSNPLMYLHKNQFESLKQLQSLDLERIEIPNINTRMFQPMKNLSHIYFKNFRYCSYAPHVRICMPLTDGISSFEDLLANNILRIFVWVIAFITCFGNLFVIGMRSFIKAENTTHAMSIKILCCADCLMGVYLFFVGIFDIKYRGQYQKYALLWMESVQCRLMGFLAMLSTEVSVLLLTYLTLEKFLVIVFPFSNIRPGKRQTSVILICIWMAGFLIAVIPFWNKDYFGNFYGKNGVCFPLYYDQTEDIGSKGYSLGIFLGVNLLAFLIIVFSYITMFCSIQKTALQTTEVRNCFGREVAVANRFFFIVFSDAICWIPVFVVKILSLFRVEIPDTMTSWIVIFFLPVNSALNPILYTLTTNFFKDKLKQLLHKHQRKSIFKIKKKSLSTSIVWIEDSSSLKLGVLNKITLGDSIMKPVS

Row | SMILES | Drinking behavior after icv infusion (in words) [1] | Activation of RXFP2 (in words) (RXFP2) | Distance from the ventricle wall beyond which little or no Cy5.5 fluorescence was seen (brain tissue; confocal microscopy) | Distribution of Cy5.5 fluorescence in brain (in words) (brain tissue; confocal microscopy of 40 μm coronal sections)
1 | CCCC[N+]1=C(C=CC=CC=C2N(CCCCCC(=O)NCCCn3cc(C[C@H](N)C(=O)N[C@@H](CC(=O)O)C(=O)N[C@@H](CO)C(=O)N[C@@H](Cc4c[nH]c5ccccc45)C(=O)N[C@@H](CCSC)C(=O)N[C@@H](CCC(=O)O)C(=O)N[C@@H](CCC(=O)O)C(=O)N[C@H](C(=O)N[C@H](C(=O)N[C@@H](CCCCN)C(=O)N[C@@H](CC(C)C)C(=O)N[C@H]4CSSC[C@@H]5NC(=O)[C@@H](NC(=O)[C@H](CCCCN)NC(=O)[C@H](CC(N)=O)NC(=O)[C@H](C)NC(=O)[C@H](CC(C)C)NC(=O)[C@H](C)NC(=O)[C@@H](N)CO)CSSC[C@H](NC(=O)CNC(=O)[C@H](C(C)C)NC(=O)[C@H](Cc6c[nH]cn6)NC5=O)C(=O)N[C@@H]([C@@H](C)O)C(=O)N[C@@H](CCCCN)C(=O)N[C@@H](CCCNC(=N)N)C(=O)N[C@@H](CO)C(=O)N[C@@H](CC(C)C)C(=O)N[C@@H](C)C(=O)N[C@@H](CCCNC(=N)N)C(=O)N[C@@H](C)C(=O)N[C@H](C(=O)O)CSSC[C@@H](C(=O)NCC(=O)N[C@@H](CCSC)C(=O)N[C@@H](CO)C(=O)N[C@H](C(=O)N[C@@H](Cc5c[nH]c6ccccc56)C(=O)N[C@@H](CO)C(=O)O)[C@@H](C)O)NC(=O)[C@H]([C@@H](C)CC)NC(=O)[C@H](C)NC(=O)[C@H]([C@@H](C)CC)NC(=O)[C@H](CCC(N)=O)NC(=O)[C@H](C)NC(=O)[C@H](CCCNC(=N)N)NC(=O)[C@H](C(C)C)NC(=O)[C@H](CC(C)C)NC(=O)[C@H](CCC(=O)O)NC(=O)[C@H](CCCNC(=N)N)NC(=O)CNC4=O)[C@@H](C)CC)C(C)C)nn3)c3ccc4ccccc4c3C2(C)C)C(C)(C)c2c1ccc1ccccc21 [Cy5.5-H2:A(4-24)(F23A)] | stimulated a similar increase in drinking behavior |  |  | 
2 | CCCC[N+]1=C(C=CC=CC=C2N(CCCCCC(=O)NCCCn3cc(C[C@H](N)C(=O)N[C@@H](CC(=O)O)C(=O)N[C@@H](CO)C(=O)N[C@@H](Cc4c[nH]c5ccccc45)C(=O)N[C@@H](CCSC)C(=O)N[C@@H](CCC(=O)O)C(=O)N[C@@H](CCC(=O)O)C(=O)N[C@H](C(=O)N[C@H](C(=O)N[C@@H](CCCCN)C(=O)N[C@@H](CC(C)C)C(=O)N[C@H]4CSSC[C@@H]5NC(=O)[C@@H](NC(=O)[C@H](CCCCN)NC(=O)[C@H](CC(N)=O)NC(=O)[C@H](C)NC(=O)[C@H](CC(C)C)NC(=O)[C@H](C)NC(=O)[C@H](CO)NC(=O)[C@H](Cc6ccc(O)cc6)NC(=O)[C@H](CC(C)C)NC(=O)[C@@H]6CCC(=O)N6)CSSC[C@H](NC(=O)CNC(=O)[C@H](C(C)C)NC(=O)[C@H](Cc6c[nH]cn6)NC5=O)C(=O)N[C@@H]([C@@H](C)O)C(=O)N[C@@H](CCCCN)C(=O)N[C@@H](CCCNC(=N)N)C(=O)N[C@@H](CO)C(=O)N[C@@H](CC(C)C)C(=O)N[C@@H](C)C(=O)N[C@@H](CCCNC(=N)N)C(=O)N[C@@H](Cc5ccccc5)C(=O)N[C@H](C(=O)O)CSSC[C@@H](C(=O)NCC(=O)N[C@@H](CCSC)C(=O)N[C@@H](CO)C(=O)N[C@H](C(=O)N[C@@H](Cc5c[nH]c6ccccc56)C(=O)N[C@@H](CO)C(=O)O)[C@@H](C)O)NC(=O)[C@H]([C@@H](C)CC)NC(=O)[C@H](C)NC(=O)[C@H]([C@@H](C)CC)NC(=O)[C@H](CCC(N)=O)NC(=O)[C@H](C)NC(=O)[C@H](CCCNC(=N)N)NC(=O)[C@H](C(C)C)NC(=O)[C@H](CC(C)C)NC(=O)[C@H](CCC(=O)O)NC(=O)[C@H](CCCNC(=N)N)NC(=O)CNC4=O)[C@@H](C)CC)C(C)C)nn3)c3ccc4ccccc4c3C2(C)C)C(C)(C)c2c1ccc1ccccc21 [Cy5.5-H2 relaxin] | stimulated a similar increase in drinking behavior | activated | > 300 μm | high levels of Cy5.5 were present within the ventricle wall and brain tissue proximal to the major cerebral ventricles
3 | CCCC[N+]1=C(C=CC=CC=C2N(CCCCCC(=O)NCCCn3cc(C[C@H](N)C(=O)N4CCC[C@H]4C(=O)N[C@H](C(=O)N4CCC[C@H]4C(=O)N[C@@H](CCC(=O)O)C(=O)N[C@@H](CCSC)C(=O)N[C@@H](CCCNC(=N)N)C(=O)N[C@@H](CCC(=O)O)C(=O)N[C@@H](CCCCN)C(=O)N[C@@H](CC(C)C)C(=O)N[C@H]4CSSC[C@@H]5NC(=O)[C@@H](NC(=O)[C@H](Cc6ccc(O)cc6)NC(=O)[C@H](CCCNC(=N)N)NC(=O)[C@H](C)NC(=O)[C@@H]6CCCN6C(=O)[C@H](CC(N)=O)NC(=O)[C@@H](NC(=O)[C@H](C)NC(=O)[C@H](C)NC(=O)[C@H](C)N)[C@@H](C)O)CSSC[C@H](NC(=O)CNC(=O)[C@H](CO)NC(=O)[C@H](CC(C)C)NC5=O)C(=O)N[C@@H]([C@@H](C)O)C(=O)N[C@@H](CCC(N)=O)C(=O)N[C@@H](CCC(N)=O)C(=O)N[C@@H](CC(=O)O)C(=O)N[C@@H](CC(C)C)C(=O)N[C@@H](CC(C)C)C(=O)N[C@@H]([C@@H](C)O)C(=O)N[C@@H](CC(C)C)C(=O)N[C@H](C(=O)N5CCC[C@H]5C(=O)N[C@@H](Cc5ccc(O)cc5)C(=O)O)CSSC[C@@H](C(=O)NCC(=O)NCC(=O)N5CCC[C@H]5C(=O)N[C@@H](CCCNC(=N)N)C(=O)N[C@@H](Cc5c[nH]c6ccccc56)C(=O)N[C@@H](CO)C(=O)N[C@H](C(=O)N[C@@H](CCC(=O)O)C(=O)N[C@@H](C)C(=O)O)[C@@H](C)O)NC(=O)[C@H](C(C)C)NC(=O)[C@H](CCCNC(=N)N)NC(=O)[C@H](C(C)C)NC(=O)[C@H](CC(C)C)NC(=O)[C@H](C)NC(=O)[C@H](CCCNC(=N)N)NC(=O)[C@H](C(C)C)NC(=O)[C@H](Cc5ccccc5)NC(=O)[C@H](Cc5c[nH]cn5)NC(=O)[C@H](Cc5c[nH]cn5)NC(=O)CNC4=O)[C@@H](C)O)nn3)c3ccc4ccccc4c3C2(C)C)C(C)(C)c2c1ccc1ccccc21 [Cy5.5-INSL3] | did not initiate a drinking response |  |  | 
